Read-outs that look alike come from different tables or passages of the source.
Experiments:
[1] = target: T1, wild-type HIV-1 RT enzyme in BH10 backbone (Human immunodeficiency virus type 1 group M subtype B, UniProt P03366); assay: biochemical; settings: for IC50: Average IC50 Values ± Standard Deviation, W.T.; for Fold Change, W.T.: Table 2, mutant vs wild-type; for Average Fold Changes ± Standard Deviation, W.T.: Table 4, IC50 mutant / IC50 wild-type
T1 construct: wild-type HIV RT enzyme derived from HIV subtype B (BH-10 strain)
Excerpt: In Vitro Antiviral Activity Against Additional Mutant HIV RT Enzymes

[2] = Plasma protein binding by equilibrium dialysis, monkey; assay type: in vitro ADME
Method: The in vitro plasma protein binding of compound I and compound III in rat, dog, monkey and human plasma was determined by equilibrium dialysis. Protein binding was assessed by equilibrium dialysis using rat, dog, monkey and human plasma. Samples were assayed by HPLC with LC-MS/MS detection. Plasma protein binding was high (>99%) for all species and for both compounds.

[3] = Compound depletion in hepatocytes, rat; assay type: in vitro ADME; settings: up to 2 hours, read-out: t½, Compound Depletion in Hepatocytes, Rat
Method: Fresh hepatocytes were plated onto collagen-coated plates and exposed to test compounds at 1 μM for up to 2 hours. Tissue culture medium was assayed for compound depletion by LC/MS detection. Values in Table 23 represent independent experiments from 5 to 7 donors.

[4] = In vitro half-life in liver microsomes, monkey; assay type: in vitro ADME; settings: up to one hour, n=1
Method: (§1) In vitro metabolism was assessed using liver microsomes for all species. Compounds were incubated at 1 μM with liver microsomes for up to one hour. Reported half-lives greater than the total incubation time are extrapolated values. Extracts were assayed for disappearance of parent compound by LC-MS/MS detection.
(§2) Data represents one independent experiment conducted.

[5] = In vitro half-life in liver microsomes, human; assay type: in vitro ADME; settings: up to one hour, longer half-lives are extrapolated, n=1
Method: as §1, §2

[6] = In vivo pharmacokinetics, dogs; settings: both sexes, Dog; for Tmax: mean; for bioavailability: read-out: BA (absolute oral bioavailability)
Method: All animals received a single oral or intravenous dose of compound in either polyethylene glycol 400 (PEG400) or a mixture of 10% ethanol (EtOH), 10% dimethylacetamine (DMA) and 80% PEG400 at the indicated dose level. Plasma concentration data were acquired using sensitive and specific LC-MS/MS methods. Pharmacokinetic data from the toxicity study included aspects of gender differences, variability and exposure.
Blood samples (1.5-2.5 mL) were collected in heparinized tubes at 0 (pre-dose), 5 (IV only), 10, 20, 30 min, 1, 2, 4, 6, 8, 12 (PO only) and 24 hr after dosing. Plasma was separated and stored at −70° C. until analysis.
Concentrations of unlabeled compound I and compound III within plasma samples and excreta from rat, dog and monkey PK studies were identified through high performance liquid chromatographic (HPLC) methods that incorporated tandem mass spectrometric detection (LC-MS/MS).
The absolute oral bioavailability was determined in pharmacokinetic by comparison of AUC values of parent compound following single intravenous and oral doses of in rats (compound III only), dogs and monkeys.

Sprague-Dawley rats = assay: 14-day oral toxicity, rats; assay type: in vivo, rat; settings: for thyroid microscopic findings / effects on food consumption or body weight: rats; for thyroid microscopic findings: all dose groups except low dose compound III-treated females; for effects on food consumption or body weight: once daily oral gavage 14 days, up to 500 (I) or 450 (III) mg/kg/day
Method: Sprague-Dawley rats and cynomolgus monkeys were dosed once daily for 14 days via oral gavage with compound I or compound III or dose vehicle (68% Capmul PG-8, 20% PEG 400, 2% Tween 20, and 10% Labrasol) according to GLP. There were 10 male and 10 female rats, and there were 3 male and 3 female monkeys. Rats and monkeys were dosed with 0, 50, 150 or 500 mg/kg/day compound I or with 0, 50, 150, 450 mg/kg/day compound III.
Toxicity was assessed using clinical observations, body weights, food consumption, and clinical pathology (hematology, coagulation, and serum chemistry).
A comprehensive necropsy and gross pathological examination was performed on all animals and selected organs and tissues were collected for histological evaluation.
Determinations of hematocrit, hemoglobin concentration, erythrocyte count, total leukocyte count, and platelet count were conducted on all samples. Leukocyte differential and morphologic assessments were performed.
Clinical biochemistry determinations included activities of alanine aminotransferase (ALT), aspartate aminotransferase (AST), gamma-glutamyltranspeptidase (GGT), and alkaline phosphatase (ALP) and concentrations of blood urea nitrogen (BUN), creatinine, total protein, albumin, globulin, glucose, cholesterol, triglycerides, total bilirubin, and electrolyte levels (Na, K, P, Cl, Ca).

CYP2B6 [7] = target: T2, CYP2B6 (Homo sapiens, UniProt P20813); assay: Human liver microsomal CYP450 inhibition, CYP2B6; settings: for IC50, CYP2B6: human liver microsomes
T2 sequence (P20813 1-491): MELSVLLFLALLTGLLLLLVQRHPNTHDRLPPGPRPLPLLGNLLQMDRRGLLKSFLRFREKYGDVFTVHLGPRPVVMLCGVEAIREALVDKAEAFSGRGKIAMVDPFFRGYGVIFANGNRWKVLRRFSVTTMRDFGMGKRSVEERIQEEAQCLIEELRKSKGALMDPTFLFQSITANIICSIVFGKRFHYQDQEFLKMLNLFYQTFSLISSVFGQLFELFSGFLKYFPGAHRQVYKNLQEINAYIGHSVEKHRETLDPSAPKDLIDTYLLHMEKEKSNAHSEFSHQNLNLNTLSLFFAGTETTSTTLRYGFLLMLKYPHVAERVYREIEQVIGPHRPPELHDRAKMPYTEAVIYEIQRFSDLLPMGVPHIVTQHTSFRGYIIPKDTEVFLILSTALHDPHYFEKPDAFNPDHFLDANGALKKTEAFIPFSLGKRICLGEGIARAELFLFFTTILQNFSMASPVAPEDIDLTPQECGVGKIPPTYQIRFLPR
Method: In addition, the type of inhibition was also evaluated.
Enzyme kinetic studies of cytochrome P450 isozyme inhibition were conducted using human liver microsomes.

CYP2B6 [8] = target: T2, CYP2B6; assay: Recombinant CYP450 inhibition, fluorometric, CYP2B6; assay type: in vitro ADME; set-up: from tissue; host or cells: pooled human liver microsomes; settings: read-out: percentage of inhibition at the highest concentration tested, CYP2B6
Method: Compounds were assayed using recombinant human microsomal proteins with fluorometric substrates. Signal was measured with a Fusion plate reader utilizing the appropriate excitation and emission wavelength set to detect the specific metabolite: […]

[9] = Table 1, in presence of detergent
[10] = plasma, 20 mg/kg PO-Fed, 1M, 1F

Structure (SMILES): CO[P@](=O)(c1cc(C)cc(/C=C/C#N)c1)c1c(C(N)=O)[nH]c2ccc(Cl)c(F)c12 [Compound I, (2-Carbamoyl-5-chloro-4-fluoro-1H-indol-3-yl)-[3-((E)-2-cyano-vinyl)-5-methyl-phenyl]-(R)-phosphinic acid methyl ester]
- IC50 [1, 9]: 366 ± 251 nM
- IC50 ([1]; Table 3, N=10): 230 ± 50 nM
- Fold Change, W.T. [1]: 1 fold
- Average Fold Changes ± Standard Deviation, W.T. [1]: 1 fold
- Percentage Plasma Protein Binding, Monkeys [2]: 99.9%
- half-life at 1 μM ([3]; hepatocytes): 33 ± 26 min
- half-life at 1 μM ([4]; microsomes): 15.4 min
- half-life at 1 μM ([5]; microsomes): 121 min
- Tmax ([6]; in vivo, 5 mg/kg PO-Fed, M+F): 18 min
- bioavailability ([6]; in vivo, 5 mg/kg PO-Fed, M+F, IV 1 mg/kg): 9%
- thyroid microscopic findings (Sprague-Dawley rats): minimal to mild thyroid follicular cell hypertrophy/hyperplasia
- effects on food consumption or body weight (Sprague-Dawley rats): No effects
- IC50 (CYP2B6 [7]): > 20000 nM
- IC50, CYP2B6 (CYP2B6 [7]): not observed
- inhibition at 20 µM (CYP2B6 [8]; recombinant enzyme): 21.6%

Structure (SMILES): CO[P@](=O)(c1cc(C)cc(/C=C/C#N)c1)c1c(C(N)=O)[nH]c2ccc(Cl)cc12 [Compound III, (2-Carbamoyl-5-chloro-1H-indol-3-yl)-[3-((E)-2-cyano-vinyl)-5-methyl-phenyl]-(R)-phosphinic acid methyl ester]
- IC50 [1, 9]: 343 ± 83 nM
- IC50 ([1]; Table 3, N=10): 210 ± 20 nM
- Fold Change, W.T. [1]: 1 fold
- Average Fold Changes ± Standard Deviation, W.T. [1]: 1 fold
- Percentage Plasma Protein Binding, Monkeys [2]: 99.9%
- half-life at 1 μM ([3]; fresh hepatocytes plated on collagen-coated plates): 17 ± 15 min
- half-life at 1 μM ([4]; liver microsomes): 12.6 min
- half-life at 1 μM ([5]; liver microsomes): 154 min
- Tmax ([6]; plasma, 5 mg/kg PO-Fed, M+F): 90 min
- bioavailability ([6]; plasma, 5 mg/kg PO-Fed, M+F, IV 1 mg/kg): 4%
- Tmax [6, 10]: 132 min
- bioavailability [6, 10]: 23%
- organ weights (Sprague-Dawley rats; rats (females only), mid and high doses, livers microscopically unremarkable): increased liver weights
- thyroid microscopic findings (Sprague-Dawley rats): minimal to mild thyroid follicular cell hypertrophy/hyperplasia
- effects on food consumption or body weight (Sprague-Dawley rats): No effects
- IC50 (CYP2B6 [7]): > 20000 nM
- IC50, CYP2B6 (CYP2B6 [7]): not observed
- inhibition at 20 µM (CYP2B6 [8]; recombinant human CYP2B6 microsomal protein): 22.9%

Reference: patent US8486991B2, “Enantiomerically pure phosphoindoles as HIV inhibitors” (Idenix Pharmaceuticals, Inc., priority 2006, dated 2013)
